Test results: patent US20210147381A1, “1,2,3,4-SUBSTITUTED QUINOLINE COMPOUNDS AS SIP MODULATORS” (AbbVie Deutschland GmbH & Co. KG, priority 2017, published 2021)
Counter-ions that a name gives are not always drawn.

What was measured:
Type in all cases: cell-based
[1] = target: T1, human S1P5 receptor (S1PR5) (Homo sapiens, UniProt Q9H228); assay: Intracellular Ca2+ release (method 1), agonist potency and efficacy, S1P5; settings: for Emax: maximum effect in % of reference agonist phospho-fingolimod (100%), read-out: hS1P5 EMax; for EC50: recombinant CHO-K1 cells expressing human S1PR5, aequorin, Gq/i5, Ca2+ release, read-out: S1P5 EC50 range
T1 construct: host or cells: CHO-K1
T1 sequence (Q9H228 whole entry): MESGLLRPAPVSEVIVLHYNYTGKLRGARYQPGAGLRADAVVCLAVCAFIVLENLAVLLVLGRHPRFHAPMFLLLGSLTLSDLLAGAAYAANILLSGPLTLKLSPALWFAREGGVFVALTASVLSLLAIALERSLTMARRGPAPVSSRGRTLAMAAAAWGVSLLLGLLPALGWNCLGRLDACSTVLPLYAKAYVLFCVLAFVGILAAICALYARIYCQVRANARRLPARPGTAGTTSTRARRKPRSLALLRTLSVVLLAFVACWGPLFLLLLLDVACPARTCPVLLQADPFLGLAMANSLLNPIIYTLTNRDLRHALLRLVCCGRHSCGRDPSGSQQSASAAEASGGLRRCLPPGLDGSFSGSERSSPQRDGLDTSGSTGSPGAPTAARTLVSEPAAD
Experimental: (§1) Agonistic activity and efficacy of compounds was assessed in recombinant cells using method 1 described below.
(§2) Agonist potency and efficacy were assessed by measurement of intracellular Ca^2+ release. Recombinant CHO-K1 cells (Euroscreen, Brussels, Belgium) expressing human S1PR5, S1PR1, S1PR3 or S1PR4 receptors, aequorin, and GTP binding protein Gq/i5 were cultured using a medium containing nutrient mixture F-12 Ham (Sigma-Aldrich) with 10% FBS, and 100 μg/mL gentamicin and equilibrated at 5% CO2.
(§3) 15,000 cells in 20 μL medium were seeded into Biocoat poly-D-Lysine coated 384 well plates (Becton Dickinson #35-6663) and grown to 95% confluency after 24 h.
(§4) Culture medium was replaced by an assay buffer consisting of HBBS with Ca^2+ and Mg^2+ (Invitrogen #14025-050), 20 mmol/L Hepes (Sigma-Aldrich #H-3375), 2.5 mmol/L probenecid (Sigma-Aldrich #P-8761, and 0.1% BSA (Sigma-Aldrich #A-7030) pH 7.4. The Calcium 5 no-wash FLIPR assay kit (Molecular Devices #5000625) was performed as described in the kit instructions. Cells were incubated with Calcium 5 dye for 1 h at 37° C., 5% CO2 in the dark. After 45 min adaptation to RT assessment of agonist stimulation of intracellular Ca^2+ release was performed by addition of test compounds at various concentrations obtained by serial dilution. Phospho-fingolimod was used as positive control and reference agonist (intrinsic activity 100%).
(§5) Agonism of test compounds at the human S1Px receptors were characterized by the EC50 values (potencies) deduced from a nonlinear 4 parametric logistic curve fit to the measured fluorescence data after normalization to the lower and upper plateaus of the fitted reference agonist's (phospho-fingolimod)effect curve and by their efficacy (Emax) values represented by their maximum achievable effects in % of the reference agonist's efficacy, which is defined as an Emax of 100%.

[2] = target: T2, human S1P1 receptor (S1PR1) (Homo sapiens, UniProt P21453); assay: Intracellular Ca2+ release (method 1), agonist potency, S1P1; settings: CHO-K1 cells expressing human S1PR1
T2 construct: host or cells: CHO-K1
T2 sequence (P21453 whole entry): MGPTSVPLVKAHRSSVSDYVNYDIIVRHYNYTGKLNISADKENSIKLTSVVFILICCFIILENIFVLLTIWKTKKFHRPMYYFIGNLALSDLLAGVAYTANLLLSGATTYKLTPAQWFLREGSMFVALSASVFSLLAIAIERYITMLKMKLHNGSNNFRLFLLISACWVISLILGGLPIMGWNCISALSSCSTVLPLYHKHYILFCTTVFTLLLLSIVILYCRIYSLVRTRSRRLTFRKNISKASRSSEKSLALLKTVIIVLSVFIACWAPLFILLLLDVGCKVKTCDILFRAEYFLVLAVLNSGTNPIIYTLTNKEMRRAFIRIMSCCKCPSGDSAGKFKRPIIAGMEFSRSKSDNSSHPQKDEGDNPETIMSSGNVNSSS
Experimental: as §1, §2, §3, §4, §5

[3] = target: T3, human S1P4 receptor (S1PR4) (Homo sapiens, UniProt O95977); assay: Intracellular Ca2+ release (method 1), agonist potency, S1P4; settings: CHO-K1 cells expressing human S1PR4
T3 construct: host or cells: CHO-K1
T3 sequence (O95977 1-384): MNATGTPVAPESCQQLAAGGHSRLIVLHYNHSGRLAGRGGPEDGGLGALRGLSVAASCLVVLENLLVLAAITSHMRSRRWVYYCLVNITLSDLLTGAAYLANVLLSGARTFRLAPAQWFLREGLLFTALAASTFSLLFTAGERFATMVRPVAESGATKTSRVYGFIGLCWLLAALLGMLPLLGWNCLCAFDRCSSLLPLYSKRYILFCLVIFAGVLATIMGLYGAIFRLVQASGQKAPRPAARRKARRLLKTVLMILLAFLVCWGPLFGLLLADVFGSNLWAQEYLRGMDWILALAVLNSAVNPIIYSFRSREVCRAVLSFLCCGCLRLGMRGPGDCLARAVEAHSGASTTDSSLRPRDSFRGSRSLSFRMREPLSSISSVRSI
Experimental: as §1, §2, §3, §4, §5

[4] = target: T4, human S1P3 receptor (S1PR3) (Homo sapiens, UniProt Q99500); assay: Intracellular Ca2+ release (method 1), agonist potency, S1P3; settings: CHO-K1 cells expressing human S1PR3
T4 construct: host or cells: CHO-K1
T4 sequence (Q99500 whole entry): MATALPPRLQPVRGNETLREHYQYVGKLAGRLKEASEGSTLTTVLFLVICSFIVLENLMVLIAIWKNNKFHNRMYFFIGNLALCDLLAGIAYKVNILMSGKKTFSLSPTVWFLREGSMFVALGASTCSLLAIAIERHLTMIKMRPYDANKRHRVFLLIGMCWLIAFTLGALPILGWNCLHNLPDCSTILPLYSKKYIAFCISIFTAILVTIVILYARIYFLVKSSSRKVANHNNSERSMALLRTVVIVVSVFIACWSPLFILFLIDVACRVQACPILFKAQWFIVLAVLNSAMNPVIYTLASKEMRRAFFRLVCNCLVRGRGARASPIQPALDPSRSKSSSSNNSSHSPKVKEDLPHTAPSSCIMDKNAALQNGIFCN
Experimental: as §1, §2, §3, §4, §5

Row | SMILES | Emax [1] | EC50 [1] | EC50 ([2]; cells given as bound) | EC50 [3] | EC50 [4] | EC50 ([3]; cells given as bound) | EC50 [2]
1 | O=C(O)CCCN1Cc2ccc(OCc3ccccc3OC(F)(F)F)cc2C2(CC2)C1 [Compound 14, 4-(6′-((2-(Trifluoromethoxy)benzyl)oxy)-1′H-spiro[cyclopropane-1,4′-isoquinolin]-2′(3′H)-yl)butanoic acid] | 50 to 100% | < 10 nM | > 1000 nM | 100 to 1000 nM | > 1000 nM |  | 
2 | O=C(O)CCCN1Cc2ccc(OCc3ccc(F)c(F)c3)cc2C2(CC2)C1 [Compound 18, 4-(6′-((3,4-Difluorobenzyl)oxy)-1′H-spiro[cyclopropane-1,4′-isoquinolin]-2′(3′H)-yl)butanoic acid] | < 50% | 10 to 100 nM | > 1000 nM | 100 to 1000 nM | > 1000 nM |  | 
3 | O=C(O)CCCN1Cc2ccc(OCc3ccccc3F)cc2C2(CC2)C1 [Compound 19, 4-(6′-((2-Fluorobenzyl)oxy)-1′H-spiro[cyclopropane-1,4′-isoquinolin]-2′(3′H)-yl)butanoic acid] | 50 to 100% | < 10 nM | > 1000 nM |  | > 1000 nM | > 1000 nM | 
4 | O=C(O)CCCN1Cc2ccc(OCc3cccc(OC(F)(F)F)c3)cc2C2(CC2)C1 [Compound 20, 4-(6′-((3-(Trifluoromethoxy)benzyl)oxy)-1′H-spiro[cyclopropane-1,4′-isoquinolin]-2′(3′H)-yl)butanoic acid] | < 50% | 10 to 100 nM | > 1000 nM | 100 to 1000 nM | > 1000 nM |  | 
5 | Cc1ccccc1COc1ccc2c(c1)C1(CC1)CN(CCCC(=O)O)C2 [Compound 22, 4-(6′-((2-Methylbenzyl)oxy)-1′H-spiro[cyclopropane-1,4′-isoquinolin]-2′(3′H)-yl)butanoic acid] | 50 to 100% | < 10 nM | > 1000 nM | 100 to 1000 nM | > 1000 nM |  | 
6 | O=C(O)CCCN1Cc2ccc(OCc3cccc(F)c3)cc2C2(CC2)C1 [Compound 23, 4-(6′-((3-Fluorobenzyl)oxy)-1′H-spiro[cyclopropane-1,4′-isoquinolin]-2′(3′H)-yl)butanoic acid] | 50 to 100% | 10 to 100 nM | > 1000 nM |  | > 1000 nM | > 1000 nM | 
7 | O=C(O)CCCN1Cc2ccc(OCc3ccccc3Cl)cc2C2(CC2)C1 [Compound 25, 4-(6′-((2-Chlorobenzyl)oxy)-1′H-spiro[cyclopropane-1,4′-isoquinolin]-2′(3′H)-yl)butanoic acid] | 50 to 100% | < 10 nM | > 1000 nM | 100 to 1000 nM | > 1000 nM |  | 
8 | O=C(O)CCN1Cc2ccc(C#Cc3cc(F)cc(F)c3)cc2C2(CC2)C1 [Compound 32, 3-(6′-((3,5-difluorophenyl)ethynyl)-1′H-spiro[cyclopropane-1,4′-isoquinolin]-2′(3′H)-yl)propanoic acid acetic acid salt (1:1)] | 50 to 100% | < 10 nM | > 1000 nM | 100 to 1000 nM | > 1000 nM |  | 
9 | O=C(O)CCN1Cc2ccc(C#Cc3cccc(Cl)c3)cc2C2(CC2)C1 [Compound 33, 3-(6′-((3-chlorophenyl)ethynyl)-1′H-spiro[cyclopropane-1,4′-isoquinolin]-2′(3′H)-yl)propanoic acid acetic acid salt (1:1)] | < 50% | < 10 nM | > 1000 nM | < 10 nM | > 1000 nM |  | 
10 | O=C(O)CCN1Cc2ccc(C#Cc3c(F)cccc3F)cc2C2(CC2)C1 [Compound 36, 3-(6′-((2,6-difluorophenyl)ethynyl)-1′H-spiro[cyclopropane-1,4′-isoquinolin]-2′(3′H)-yl)propanoic acid acetic acid salt (1:1)] | 50 to 100% | < 10 nM | > 1000 nM | 100 to 1000 nM | > 1000 nM |  | 
11 | Cc1ccccc1C#Cc1ccc2c(c1)C1(CC1)CN(CCC(=O)O)C2 [Compound 37, 3-(6′-(o-tolylethynyl)-1′H-spiro[cyclopropane-1,4′-isoquinolin]-2′(3′H)-yl)propanoic acid acetic acid salt (1:1)] | 50 to 100% | 10 to 100 nM | > 1000 nM | 100 to 1000 nM | > 1000 nM |  | 

Now from value to molecule:

Row | Emax [1] | EC50 [1] | EC50 ([2]; cells given as bound) | EC50 [3] | EC50 [4] | EC50 ([3]; cells given as bound) | EC50 [2] | SMILES
12 | > 100% | < 10 nM | > 1000 nM | 10 to 100 nM | > 1000 nM |  |  | O=C(O)CCCN1Cc2ccc(OCc3c(Cl)cccc3Cl)cc2C2(CC2)C1 [Compound 15, 4-(6′-((2,6-Dichlorobenzyl)oxy)-1′H-spiro[cyclopropane-1,4′-isoquinolin]-2′(3′H)-yl)butanoic acid]
13 | < 50% | 10 to 100 nM | > 1000 nM | 100 to 1000 nM | > 1000 nM |  |  | O=C(O)CCCN1Cc2ccc(OCc3cccc(F)c3F)cc2C2(CC2)C1 [Compound 21, 4-(6′-((2,3-Difluorobenzyl)oxy)-1′H-spiro[cyclopropane-1,4′-isoquinolin]-2′(3′H)-yl)butanoic acid]
14 | 50 to 100% | < 10 nM | > 1000 nM | 100 to 1000 nM | > 1000 nM |  |  | O=C(O)CCCN1Cc2ccc(OCc3cccc(Cl)c3)cc2C2(CC2)C1 [Compound 24, 4-(6′-((3-Chlorobenzyl)oxy)-1′H-spiro[cyclopropane-1,4′-isoquinolin]-2′(3′H)-yl)butanoic acid]
15 | 50 to 100% | 10 to 100 nM | > 1000 nM | 10 to 100 nM | > 1000 nM |  |  | O=C(O)CCCN1Cc2ccc(OCc3ccc(Cl)c(Cl)c3)cc2C2(CC2)C1 [Compound 26, 4-(6′-((3,4-Dichlorobenzyl)oxy)-1′H-spiro[cyclopropane-1,4′-isoquinolin]-2′(3′H)-yl)butanoic acid]
16 | > 100% | < 10 nM | > 1000 nM | < 10 nM | > 1000 nM |  |  | CCc1cccc(Cl)c1COc1ccc2c(c1)C1(CC1)CN(CCCC(=O)O)C2 [Compound 27, 4-(6′-((2-Chloro-6-ethylbenzyl)oxy)-1′H-spiro[cyclopropane-1,4′-isoquinolin]-2′(3′H)-yl)butanoic acid]
17 | 50 to 100% | 10 to 100 nM | > 1000 nM | 100 to 1000 nM | > 1000 nM |  |  | CCc1cccc(Cl)c1COc1ccc2c(c1)C1(CC1)CN(C(C)C(=O)O)C2 (stereo not shown) [Compound 28, 2-(6′-((2-Chloro-6-ethylbenzyl)oxy)-1′H-spiro[cyclopropane-1,4′-isoquinolin]-2′(3′H)-yl)propanoic acid]
18 | > 100% | < 10 nM |  |  | > 1000 nM | > 1000 nM | 100 to 1000 nM | CC(C)c1ccc(C#Cc2ccc3c(c2)C2(CC2)CN(CCC(=O)O)C3)cc1 [Compound 31, 3-(6′-((4-isopropylphenyl)ethynyl)-1′H-spiro[cyclopropane-1,4′-isoquinolin]-2′(3′H)-yl)propanoic acid acetic acid salt (1:1)]
19 | 50 to 100% | < 10 nM | > 1000 nM |  | > 1000 nM | > 1000 nM |  | CCOc1ccc(C#Cc2ccc3c(c2)C2(CC2)CN(CCC(=O)O)C3)cc1 [Compound 34, 3-(6′-((4-ethoxyphenyl)ethynyl)-1′H-spiro[cyclopropane-1,4′-isoquinolin]-2′(3′H)-yl)propanoic acid acetic acid salt (1:1)]
20 | 50 to 100% | < 10 nM | > 1000 nM | 100 to 1000 nM | > 1000 nM |  |  | O=C(O)CCN1Cc2ccc(C#Cc3ccccc3Cl)cc2C2(CC2)C1 [Compound 35, 3-(6′-((2-chlorophenyl)ethynyl)-1′H-spiro[cyclopropane-1,4′-isoquinolin]-2′(3′H)-yl)propanoic acid]
